Experimental findings from patent US10875851B2, “Factor XIIa inhibitors” (Merck Sharp & Dohme Corp., priority 2016, dated 2020) are described below.

What is called IC50 is the concentration that inhibits the measured activity by half.

Chain of human Factor XIIa (P00748 373-615): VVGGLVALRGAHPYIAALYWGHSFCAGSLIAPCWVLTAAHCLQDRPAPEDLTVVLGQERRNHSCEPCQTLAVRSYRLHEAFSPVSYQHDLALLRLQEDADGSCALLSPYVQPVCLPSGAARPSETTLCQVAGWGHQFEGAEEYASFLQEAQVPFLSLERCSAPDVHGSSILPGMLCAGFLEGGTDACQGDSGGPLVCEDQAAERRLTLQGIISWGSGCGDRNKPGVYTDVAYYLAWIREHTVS

In the test the target is human Factor XIIa (Homo sapiens (Human), UniProt P00748). As to the kind of experiment: Factor XIIa Assay. It counts as biochemical. The conditions noted are these: purified human Factor XIIa 500 pM; substrate n-Acetyl-Lys-Pro-Arg-AFC 100 μM; pH 7.4; read-out: FXIIa IC50. The procedure, abridged:
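Purified human FXIIa at 500 pM final with 100 μM n-Acetyl-Lys-Pro-Arg-AFC in 50 mM HEPES, 150 mM NaCl, 5 mM CaCl2, 0.1% PEG 8000, pH 7.4, at room temperature or 37° C. Initial fluorogenic hydrolysis rates measured after enzyme–inhibitor equilibration; IC50 taken where Vi=Vo/2.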
As for `O=C(NCc1cccs1)[C@@H]1CN(C(=O)Oc2cccc3cccnc23)CCN1C(=O)[C@@H](CC1CCCCC1)NC1CCCCC1` [Example 30, quinolin-8-yl (3S)-4-(N,3-dicyclohexyl-D-alanyl)-3-[(thiophen-2-ylmethyl)carbamoyl]piperazine-1-carboxylate], the IC50 turned out to be 5.8 nM.
Regarding `CC(C)N[C@H](CCCCN1CCCCC1)C(=O)N1CCN(C2=N[C@@H](C)[C@H](c3ccccc3)O2)C[C@H]1C(=O)NCc1ccc2[nH]cc(Cl)c2c1` [Example 171, (2S)-N-[(3-chloro-1H-indol-5-yl)methyl]-1-[N-(1-methylethyl)-6-piperidin-1-yl-D-norleucyl]-4-[(4S,5S)-4-methyl-5-phenyl-4,5-dihydro-1,3-oxazol-2-yl]piperazine-2-carboxamide], the IC50 came to 0.5 nM.
The figure for `CC[C@@H](NC1CCC2(CC1)CCN(Cc1ccccc1)C2)C(=O)N1CCN(C(=O)Oc2ccc(C)c(C)c2Cl)C[C@H]1C(=O)NCc1ccc(CN)c(OC)c1` (stereo partly drawn) [Example 107, 2-chloro-3,4-dimethylphenyl (3S)-3-{[4-(aminomethyl)-3-methoxybenzyl]carbamoyl}-4-{(2R)-2-[(2-benzyl-2-azaspiro[4.5]dec-8-yl)amino]butanoyl}piperazine-1-carboxylate] is 14 nM; for `CS(=O)(=O)NCCCC[C@@H](NC1CCCCC1)C(=O)N1CCN(C(=O)Oc2ccc3ccccc3c2Cl)C[C@H]1C(=O)NCc1cccs1` [Example 70, 1-chloronaphthalen-2-yl (3S)-4-[N^2-cyclohexyl-N^6-(methylsulfonyl)-D-lysyl]-3-[(thiophen-2-ylmethyl)carbamoyl]piperazine-1-carboxylate] it is 20 nM.
The figure for `CN(C)CCCC[C@H](C(=O)N1CCN(C2=NC(C)(C)C(c3ccccc3)O2)C[C@H]1C(=O)NCc1ccc2[nH]cc(Cl)c2c1)N(C)C` (stereo partly drawn) [Example 146, (2S)-N-[(3-chloro-1H-indol-5-yl)methyl]-4-(4,4-dimethyl-5-phenyl-4,5-dihydro-1,3-oxazol-2-yl)-1-(N^2,N^2,N^6,N^6-tetramethyl-D-lysyl)piperazine-2-carboxamide] is 5.7 nM; for `C[C@@H]1N=C(N2CCN(C(=O)[C@@H](CC3CCN(C4CCCCC4)CC3)NC3CCCCC3)[C@H](C(=O)NCc3cccs3)C2)O[C@H]1c1ccccc1` [Example 183, (2S)-[N-cyclohexyl-3-(1-cyclohexylpiperidin-4-yl)-D-alanyl]-4-[(4S,5S)-4-methyl-5-phenyl-4,5-dihydro-1,3-oxazol-2-yl]-N-(thiophen-2-ylmethyl)piperazine-2-carboxamide] it is 2.4 nM.
Regarding `Cc1ccc(OC(=O)N2CCN(C(=O)[C@@H](CCCCN3CCCC3)NC3CCC4(CC3)CCN(Cc3ccccc3)C4)[C@H](C(=O)NCc3cccs3)C2)c(Cl)c1C` (stereo partly drawn) [Example 109, 2-chloro-3,4-dimethylphenyl (3S)-4-[N-(2-benzyl-2-azaspiro[4.5]dec-8-yl)-6-pyrrolidin-1-yl-D-norleucyl]-3-[(thiophen-2-ylmethyl)carbamoyl]piperazine-1-carboxylate], the IC50 came to 1 nM.
As for `CC(C)N[C@H](CCCCN1CCCCC1)C(=O)N1CCN(C2=NC(C)[C@H](c3cccc(C#N)c3)O2)C[C@H]1C(=O)NCc1cccs1` (stereo partly drawn) [Example 169, (2S)-4[5-(3-cyanophenyl)-4-methyl-4,5-dihydro-1,3-oxazol-2-yl]-1-[N-(1-methylethyl)-6-piperidin-1-yl-D-norleucyl]-N-(thiophen-2-ylmethyl)piperazine-2-carboxamide], the IC50 was 12.5 nM.
The figure for `C[C@@H]1N=C(N2CCN(C(=O)[C@@H](CCCCNS(C)(=O)=O)NC3CCCCC3)[C@H](C(=O)NCc3cccs3)C2)O[C@@H]1c1ccccc1` [Example 152, (2S)-1-[N^2-cyclohexyl-N^6-(methylsulfonyl)-D-lysyl]-4-[(4S,5R)-4-methyl-5-phenyl-4,5-dihydro-1,3-oxazol-2-yl]-N-(thiophen-2-ylmethyl)piperazine-2-carboxamide] is 34.2 nM.
The figure for `CC(C)N[C@H](CCCCN1CCCCC1)C(=O)N1CCN(C2=N[C@@H](C)[C@H](c3ccccc3)O2)C[C@H]1C(=O)NCc1cc(F)c(CN)c(F)c1` [Example 181, (2S)-N-[4-(aminomethyl)-3,5-difluorobenzyl]-1-[N-(1-methylethyl)-6-piperidin-1-yl-D-norleucyl]-4-[(4S,5S)-4-methyl-5-phenyl-4,5-dihydro-1,3-oxazol-2-yl]piperazine-2-carboxamide] is 44.4 nM; for `CS(=O)(=O)NCCCC[C@@H](NC1CCCC1)C(=O)N1CCN(C(=O)Oc2ccc3ccccc3c2Cl)C[C@H]1C(=O)NCc1cccs1` [Example 113, 1-chloronaphthalen-2-yl (3S)-4-[N^2-cyclopentyl-N~6~-(methylsulfonyl)-D-lysyl]-3-[(thiophen-2-ylmethyl)carbamoyl]piperazine-1-carboxylate] it is 8.4 nM.
Regarding `Cc1ccc(OC(=O)N2CCN(C(=O)[C@@H](CCCCN(C)C)N(C)C3CCC4(CC3)CCN(Cc3ccccc3)C4)[C@H](C(=O)NCc3cccs3)C2)c(Cl)c1C` (stereo partly drawn) [Example 100, 2-chloro-3,4-dimethylphenyl (3S)-4-[N^2-(2-benzyl-2-azaspiro[4.5]dec-8-yl)-N^2,N^6,N^6-trimethyl-D-lysyl]-3-[(thiophen-2-ylmethyl)carbamoyl]piperazine-1-carboxylate], the IC50 is 0.5 nM.
The figure for `CN(C)CCCC[C@H](C(=O)N1CCN(C2=NC(C)(C)C(c3ccccc3)O2)C[C@H]1C(=O)NCc1cc(CN)cs1)N(C)C` (stereo partly drawn) [Example 150, (2S)-N-{[4-(aminomethyl)thiophen-2-yl]methyl}-4-(4,4-dimethyl-5-phenyl-4,5-dihydro-1,3-oxazol-2-yl)-1-(N^2,N^2,N^6,N^6-tetramethyl-D-lysyl)piperazine-2-carboxamide] is 48.5 nM; for `CN(C)CCCC[C@H](C(=O)N1CCN(C2=NC(C)(C)C(c3ccccc3)O2)C[C@H]1C(=O)NCc1ccc2[nH]cc(Cl)c2c1)N(C)C` (stereo partly drawn) [Example 145, (2S)-N-[(3-chloro-1H-indol-5-yl)methyl]-4-(4,4-dimethyl-5-phenyl-4,5-dihydro-1,3-oxazol-2-yl)-1-(N^2,N^2,N^6,N^6-tetramethyl-D-lysyl)piperazine-2-carboxamide] it is 6.7 nM; for `COc1cc(CNC(=O)[C@@H]2CN(C(=O)Oc3ccc4ccccc4c3Cl)CCN2C(=O)[C@@H](CCCCN(C)C)NC2CCC(CN)CC2)ccc1CN` (stereo partly drawn) [Example 92, 1-chloronaphthalen-2-yl (3S)-4-{N^2-[4-(aminomethyl)cyclohexyl]-N^6,N^6-dimethyl-D-lysyl}-3-{[4-(aminomethyl)-3-methoxybenzyl]carbamoyl}piperazine-1-carboxylate] it is 2.9 nM.
